Measurements reported in ChEMBL document CHEMBL3045971, “Normalizing effects of Costus speciosus rhizome crude extracts and its fractions on diabetic complications in STZ-induced diabetic rats” (Med Chem Res, 2011).

Assays:
Rattus norvegicus [1] = experiment: Antidiabetic activity in Rattus norvegicus Wistar (rat) assessed as STZ-induced plasma glucose level at 10 mg/kg, po administered for 15 days by glucose oxidase method (reference value: 377.3 +/- 10.5 mg/dl); assay type: functional
Rattus norvegicus [2] = experiment: Effect on plasma glucose level in normal Rattus norvegicus Wistar (rat) at 20 mg/kg, po administered for 15 days by glucose oxidase method (reference value: 85.7 +/- 7.2 mg/dl); assay type: organism-based; design: dose 20 mg/kg, route oral; details: in vivo, 360 h
Rattus norvegicus [3] = experiment: Antidiabetic activity in po dosed Rattus norvegicus Wistar (rat) assessed as decrease in STZ-induced plasma glucose level administered for 15 days by glucose oxidase method; assay type: functional, organism-based
Rattus norvegicus [4] = experiment: Antidiabetic activity in Rattus norvegicus Wistar (rat) assessed as STZ-induced plasma glucose level at 5 mg/kg, po administered for 15 days by glucose oxidase method (reference value: 377.3 +/- 10.5 mg/dl); assay type: functional
Rattus norvegicus [5] = experiment: Antidiabetic activity in Rattus norvegicus Wistar (rat) assessed as STZ-induced plasma glucose level at 20 mg/kg, po administered for 15 days by glucose oxidase method (reference value: 377.3 +/- 10.5 mg/dl); assay type: functional

Activity (Rattus norvegicus [2]) | Activity (Rattus norvegicus [3]) | Structure (SMILES) | Activity (Rattus norvegicus [1]) | Activity (Rattus norvegicus [4]) | Activity (Rattus norvegicus [5])
95.57 mg/dL | Dose-dependent effect | C=C1CC[C@H]2C(C)=CC[C@H]3C(=C)C(=O)O[C@@H]3[C@@H]12 [EREMANTHIN] | 265.27 mg/dL | 308.41 mg/dL | 188.76 mg/dL
85.5 mg/dL | Dose-dependent effect | C=C1C(=O)O[C@@H]2/C=C(\C)CC/C=C(\C)CC[C@@H]12 [COSTUNOLIDE] | 240.7 mg/dL | 285.5 mg/dL | 167 mg/dL
